The structures appear in SMILES notation. Where “and” joins values, the source holds several entries; their conditions need not be identical. Equal entries are not always repeated.

The target of the experiment is T1, THIK-1 Y273A (Homo sapiens, UniProt Q9HB14, Y273A).
T1 construct: expressed in transfected cells; host or cells: Xenopus oocytes (mRNA injection)
T1 sequence (Q9HB14 1-408 Y273A): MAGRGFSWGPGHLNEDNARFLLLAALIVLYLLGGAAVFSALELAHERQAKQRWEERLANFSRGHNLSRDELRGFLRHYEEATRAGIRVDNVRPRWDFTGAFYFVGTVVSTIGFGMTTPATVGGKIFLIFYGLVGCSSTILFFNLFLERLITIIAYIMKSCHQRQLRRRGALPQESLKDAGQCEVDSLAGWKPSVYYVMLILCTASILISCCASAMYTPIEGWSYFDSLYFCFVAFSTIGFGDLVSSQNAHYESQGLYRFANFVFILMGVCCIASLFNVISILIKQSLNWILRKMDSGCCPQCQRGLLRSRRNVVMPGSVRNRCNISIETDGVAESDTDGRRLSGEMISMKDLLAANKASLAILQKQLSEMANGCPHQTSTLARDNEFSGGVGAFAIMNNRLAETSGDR
The experiment in a line: Inside-out excised patch recordings, oocytes, THIK-1 Y273A mutant. It counts as cell-based. More on the design: Halothane inhibition: concentration or dose not given beside the values. An excerpt:
Human K2P13.1 THIK-1 (GenBank accession number: NM_022054) and human K2P12.1 THIK-2 (NM_022055.1) were used in this study. For functional expression studies, the respective K^+ channel subtype coding sequences were subcloned into the oocyte expression vector pSGEM or the dual-purpose expression vector pFAW[41] and verified by sequencing. All mutant channels were obtained by site-directed mutagenesis and verified by sequencing. To increase surface expression and macroscopic currents, measurements of THIK-2 channels used a mutated ER retention motif, (R11A R12A R14A R15A R16A; THIK-2*)[20]. Vector DNA was linearized with NheI or MluI, and mRNA was synthesized in vitro using the SP6 or T7 AmpliCap Max High Yield Message Maker Kit (Cellscript, USA) or HiScribe T7 ARCA mRNA Kit (New England Biolabs).
Two-electrode voltage–clamp (TEVC) studies were performed in Xenopus oocytes. All animal use conformed to the Guide for the Care and Use of Laboratory Animals (NIH Publication 85–23), and all experiments using Xenopus toads were approved by the local ethics panels. Oocytes were stored at 17 °C in ND96 recording solution composed of (in mM): 96 NaCl, 2 KCl, 1.8 CaCl2, 1 MgCl2, 5 HEPES (pH 7.5 adjusted with NaOH and HCl), supplemented with Na-pyruvate (275 mg L^–1), theophylline (90 mg L^–1) and gentamicin (50 mg L^–1). Oocytes were injected with 1 ng mRNA for WT or mutant channels, and were incubated for 24–48 h at 17 °C. Two-electrode voltage clamp recordings were then performed as previously described[42],[43]. For macroscopic patch–clamp measurements, oocytes were obtained as described above incubated at 17 °C in a solution containing (mM): 54 NaCl, 30 KCl, 2.4 NaHCO3, 0.82 MgSO4 ×7 H2O, 0.41 CaCl2, 0.33 Ca(NO3)2 ×4 H2O and 7.5 TRIS (pH 7.4 adjusted with NaOH and HCl) for 1–4 days before use. Excised patch recordings in inside-out configuration conditions were performed at room temperature. […] Intracellular bath solutions and compounds were applied to the cytoplasmic side of excised patches for the various K^+ channels through a gravity flow multi-barrel pipette system. The intracellular solution had the following composition (in mM): 120 KCl, 10 HEPES, 2 EGTA and 1 pyrophosphate (pH adjusted with KOH and HCl). Currents were recorded with an EPC10 amplifier (HEKA Electronics) and sampled at 10 kHz or higher, with filtering set to 3 kHz (–3 dB) or higher, as appropriate for sampling rate. For measurements of GPCR activation, whole-cell currents were recorded for THIK-1 in transiently transfected HEK-293 cells. Cells were stimulated by a ramp protocol between −100 and +60 mV (holding potential, −80 mV). The pipette solution was composed of (in mM): 140 KCl, 2 MgCl2, 1 CaCl2, 2.5 EGTA and 10 HEPES (pH 7.3 adjusted with KOH and HCl). The extracellular bath solution had the following composition (in mM): 135 NaCl, 5 KCl, 2 MgCl2, 2 CaCl2, 10 glucose and 10 HEPES pH (pH 7.3 adjusted with NaOH and HCl). Oxotremorine M (Oxo-M) was added to extracellular bath solution to obtain the final concentration. Single-channel currents were recorded with an Axopatch 200B amplifier through a Digidata 1440A digitizer (Molecular Devices). Data were filtered at 2 kHz and recorded at a 200-kHz sampling rate with the program Clampex (Molecular Devices). Pipette solution and bath solution for cell-attached recordings contained (in mM): 140 KCl, 2 MgCl2, 1 CaCl2 and 10 HEPES (pH 7.4 adjusted with KOH and HCl). For inside-out recordings, the bath solution contained (in mM): 140 KCl, 2 MgCl2, 1 CaCl2 and 10 HEPES (pH 7.2 adjusted with KOH and HCl). All experiments were conducted at room temperature.
TPenA, linoleic acid, L-α-phosphatidylinositol 4,5-bisphosphate (brain PI(4,5)P2, PIP2) (Sigma-Aldrich and Merck) and oleoyl-CoA (LC-CoA 18:1) (Avanti Polar Lipids) were prepared as stocks (1–100 mM) in DMSO, stored at −80 °C and diluted to the final concentration in the intracellular recording solution. Oxo-M (Tocris Bioscience,) was prepared as 50 mM stock in H2O. […]

Usually inhibition stands for the percentage by which the read-out fell short of the control. On to `FC(F)OC(Cl)C(F)(F)F` (stereo not drawn) [Isoflurane, isoflurane], for which the “Inhibition (%)” value (4.9 mM Isoflurane, Y273A, individual recordings) is 36.141% and 64.534% and 64.029% and 67.231% and 69.534% and 60.746% and 65.223% and 43.937% and 15.847% and 38.113% and 40.962% and 42.936%. This compound also returned an inhibition at 242 µM (isoflurane 0.242 mM, THIK-1 Y273A) of 9.07%. The inhibition at 485 µM (isoflurane 0.485 mM, THIK-1 Y273A) stood at 17.7%. The compound also gave an inhibition at 2420 µM (isoflurane 2.42 mM, THIK-1 Y273A) of 30.9%. For the setting “isoflurane 4.85 mM, THIK-1 Y273A”, at 4850 µM the inhibition was 50.8%. Further, for the setting “isoflurane 24.2 mM, THIK-1 Y273A”, at 24200 µM the inhibition was 75%.
`FCOC(C(F)(F)F)C(F)(F)F` [Sevoflurane, sevoflurane]: the “Inhibition (%)” value (0.24 mM Sevoflurane, Y273A, individual recordings) was 39.37% and 26.75% and 26.20% and 15.99% and 28.93% and 17.93% and 28.11%. 240 µM produced 26.2% inhibition (0.24 mM Sevoflurane, Y273A, mean). Moreover, the inhibition at 23 µM (THIK-1 Y273A, 0.023 mM sevoflurane) came out at 6.96%. For the setting “THIK-1 Y273A, 0.047 mM sevoflurane”, this compound gave an inhibition at 47 µM of 10.4%. This compound returned an inhibition at 468 µM (THIK-1 Y273A, 0.468 mM sevoflurane) of 38.6%. The inhibition at 2340 µM (THIK-1 Y273A, 2.34 mM sevoflurane) was determined as 62.5%.
For the compound `CCCCC[N+](CCCCC)(CCCCC)CCCCC` [TPenA, tetrapentylammonium], the Normalized currents (TPenA 0.1 µM, THIK-1 Y273A) came out at 1.00; the Normalized currents (TPenA 1 µM, THIK-1 Y273A) is 0.96; the Normalized currents (TPenA 4 µM, THIK-1 Y273A) stood at 0.84; the Normalized currents (TPenA 15.6 µM, THIK-1 Y273A) is 0.65; the Normalized currents (TPenA 62.5 µM, THIK-1 Y273A) amounted to 0.41; the Normalized currents (TPenA 250 µM, THIK-1 Y273A) stood at 0.19. For the same compound, the Normalized currents runs as follows: (TPenA 1000 µM, THIK-1 Y273A) 0.07; (TPenA 4000 µM, THIK-1 Y273A) 0.03. In addition, the “τ of 1 mM TPenA block” value reads like this: (Y273A, individual recordings) 0.054 s and 0.134 s and 0.071 s and 0.075 s and 0.076 s and 0.081 s and 0.059 s and 0.121 s and 0.057 s and 0.060 s; (Y273A, mean) 0.08 s. The “τ of 1 mM TPenA release” value runs as follows: (Y273A, individual recordings) 0.946 s and 0.858 s and 0.474 s and 1.777 s and 0.915 s and 1.232 s and 0.747 s and 0.935 s and 0.998 s and 1.301 s; (Y273A, mean) 1.02 s.
With `FC(F)(F)C(Cl)Br` (stereo not drawn) [halothane], the “Inhibition (%)” value (3.0 mM halothane, Y273A, individual recordings) is 24.640% and 18.199% and 20.441% and 32.359% and 23.062% and 35.325% and 35.762% and 32.640% and 40.661% and 24.150% and 21.311% and 24.444% and 21.407% and 27.084%. At 3000 µM the inhibition (3.0 mM halothane, Y273A, mean) was 27.2%. For the same compound, the Halothane inhibition reads like this: (THIK-1 Y273A, 4 K+ ex., individual recordings) 48.800% and 50.390% and 50.850% and 54.290% and 50.150% and 44.140% and 43.970% and 46.310% and 43.270% and 42.110%; (THIK-1 Y273A, 4 K+ ex., mean) 47.43%; (THIK-1 Y273A, 120 K+ ex., individual recordings) 50.140% and 54.850% and 53.810% and 41.990% and 54.110% and 49.130% and 50.870% and 49.910% and 52.660%; (THIK-1 Y273A, 120 K+ ex., mean) 50.83%.

Source of the values: paper PMC12263422, “Cryo-EM structure of the human THIK-1 K2P K^+ channel reveals a lower Y gate regulated by lipids and anesthetics” (Nature Structural & Molecular Biology, 2025).
